From patent US8232406B2, “c-MET protein kinase inhibitors” (Vertex Pharmaceuticals Incorporated, priority 2006, dated 2012)
pKi: −log10 of the molar value.

Molecular target: c-MET (Homo sapiens, UniProt P08581)
Assay: Ki determination for the inhibition of c-MET (standard radiometric 33P-ATP kinase assay, polyE4Y substrate)
Format: biochemical
Conditions: 1.0 nM c-Met, 35 μM ATP, 0.5 mg/mL polyE4Y, 20 min; competitive tight-binding fit
Summary of the method: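 Ki obtained by fitting data to competitive tight-binding inhibition kinetics. c-Met at 1.0 nM phosphorylated polyE4Y (0.5 mg/mL) with 35 μM 33P-ATP for 20 min in pH 7.5 HEPES buffer with MgCl2, NaCl, BSA and DTT. Incorporated label measured by scintillation after TCA precipitation on filters.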

Chain of c-MET (P08581 25-1390): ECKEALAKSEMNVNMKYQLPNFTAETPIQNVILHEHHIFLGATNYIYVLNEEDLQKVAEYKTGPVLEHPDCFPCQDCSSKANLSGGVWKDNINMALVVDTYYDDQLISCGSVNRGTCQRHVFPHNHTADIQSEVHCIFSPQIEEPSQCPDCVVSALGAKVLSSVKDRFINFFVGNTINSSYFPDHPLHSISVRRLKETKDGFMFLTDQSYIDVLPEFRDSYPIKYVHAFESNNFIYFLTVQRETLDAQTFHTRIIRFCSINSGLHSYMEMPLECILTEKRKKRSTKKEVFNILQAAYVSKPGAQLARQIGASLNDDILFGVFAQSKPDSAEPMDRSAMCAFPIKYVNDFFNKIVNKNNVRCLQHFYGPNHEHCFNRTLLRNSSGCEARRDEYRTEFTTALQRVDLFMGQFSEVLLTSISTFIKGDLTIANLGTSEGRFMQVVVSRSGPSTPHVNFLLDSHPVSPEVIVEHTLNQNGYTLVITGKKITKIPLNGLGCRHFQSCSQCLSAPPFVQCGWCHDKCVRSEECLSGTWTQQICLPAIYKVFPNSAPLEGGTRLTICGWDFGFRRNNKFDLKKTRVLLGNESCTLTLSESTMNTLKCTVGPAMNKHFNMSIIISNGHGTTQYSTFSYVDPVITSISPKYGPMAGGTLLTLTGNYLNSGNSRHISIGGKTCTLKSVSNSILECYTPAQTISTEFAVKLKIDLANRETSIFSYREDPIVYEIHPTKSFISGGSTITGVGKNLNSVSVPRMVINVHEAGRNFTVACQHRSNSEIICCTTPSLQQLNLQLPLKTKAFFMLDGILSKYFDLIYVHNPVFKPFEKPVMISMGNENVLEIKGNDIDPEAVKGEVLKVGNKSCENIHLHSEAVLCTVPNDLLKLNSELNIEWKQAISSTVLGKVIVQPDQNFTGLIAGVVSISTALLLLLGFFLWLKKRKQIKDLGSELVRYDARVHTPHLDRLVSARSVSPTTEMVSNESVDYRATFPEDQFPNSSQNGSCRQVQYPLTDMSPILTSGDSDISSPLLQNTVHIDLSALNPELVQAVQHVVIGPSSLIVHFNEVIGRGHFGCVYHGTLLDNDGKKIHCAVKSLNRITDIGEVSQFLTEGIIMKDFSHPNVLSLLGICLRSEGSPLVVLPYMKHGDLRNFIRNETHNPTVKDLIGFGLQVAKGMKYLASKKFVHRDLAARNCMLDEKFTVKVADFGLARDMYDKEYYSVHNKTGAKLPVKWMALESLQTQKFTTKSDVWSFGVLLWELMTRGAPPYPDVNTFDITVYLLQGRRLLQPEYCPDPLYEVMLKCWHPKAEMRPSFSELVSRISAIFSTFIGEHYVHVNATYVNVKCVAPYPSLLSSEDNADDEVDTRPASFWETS

pKi	SMILES
≥ 7.00	Nc1ncc(-c2ccc(CN3CCCC3)cc2)cc1-c1nc2cnccc2n1-c1cccc(F)c1F [I-D-3]
≥ 7.00	Nc1ncc(-c2ccc(C3CCNCC3)cc2)cc1-c1nnnn1-c1cccc(F)c1F [I-A-400]
≥ 7.00	Nc1ncc(-c2cnn(C3CCOCC3)c2)cc1-c1nnnn1-c1cccc(F)c1F [I-A-396]
6.00 to 7.00	CC(=O)Nc1cccc(-c2cnc(N)c(-c3nnnn3-c3c(F)cccc3F)c2)c1 [I-A-610]
≥ 7.00	CS(=O)(=O)c1ccc(-c2cnc(N)c(-c3nncn3-c3cccc(F)c3F)n2)cc1 [I-A-32]
≥ 7.00	CC(=O)Nc1ccc(-c2cnc(N)c(-c3nnnn3-c3cccc(Cl)c3F)c2)cc1 [I-A-584]
6.00 to 7.00	Cc1ccccc1-c1cnc(N)c(-c2nnnn2-c2cccc(F)c2F)c1 [I-A-241]
≥ 7.00	CC(=O)c1ccc(-c2cnc(N)c(-c3nnnn3-c3cccc(F)c3F)c2)cc1 [I-A-219]
≥ 7.00	C[C@@H]1CC[C@@H](C)N1Cc1ccc(-c2cnc(N)c(-c3nnnn3-c3cccc(F)c3F)c2)cc1 [I-A-267]
≥ 7.00	Nc1ncc(C2=CCN(C(=O)C3CCOC3)CC2)cc1-c1nnnn1-c1cccc(F)c1F (centres unmarked) [I-A-422]
6.00 to 7.00	Nc1ncc(-c2cc(O)c(F)c(F)c2)cc1-c1nnnn1-c1cccc(F)c1F [I-A-291]
≥ 7.00	Nc1ncc(-c2cnn(C3CCNCC3)c2)cc1-c1nccn1-c1cccc(Cl)c1Cl [I-A-394]
≥ 7.00	Nc1ncc(-c2cccc(N3CCNCC3)c2)cc1-c1nnnn1-c1cccc(F)c1F [I-A-414]
≥ 7.00	CC(=O)N1CCC(n2cc(-c3cnc(N)c(-c4nnc(C)n4-c4cccc(Cl)c4F)c3)cn2)CC1 [I-A-457]
≥ 7.00	Nc1ncc(-c2ccc(CNC3CCC3)cc2)cc1-c1nnnn1-c1cccc(F)c1F [I-A-151]
≥ 7.00	CC(=O)N1CCN(Cc2ccc(-c3cnc(N)c(-c4nc5cnccc5n4-c4cccc(F)c4F)c3)cc2)CC1 [I-D-6]
≥ 7.00	Nc1ncc(-c2ccc(NC(=O)N3CCCC3)cc2)cc1-c1nnnn1-c1cccc(F)c1F [I-A-276]
6.00 to 7.00	Nc1ncc(-c2ccc(CN3CCCC3)cc2)cc1-c1nnnn1-c1cc(F)ccc1Cl [I-A-596]
6.00 to 7.00	Nc1ncc(-c2cccnc2)nc1-c1nncn1-c1cccc(F)c1F [I-A-2]
6.00 to 7.00	Nc1ncc(C2=CCN(C3CCNCC3)CC2)cc1-c1nnnn1-c1cccc(F)c1F [I-A-424]
≥ 7.00	CN(C)S(=O)(=O)N1CCC(n2cc(-c3cnc(N)c(-c4nnnn4-c4cccc(Cl)c4F)c3)cn2)CC1 [I-A-442]

pKi	SMILES
≥ 7.00	Nc1ncc(-c2cnn(C3CCCNCC3)c2)nc1-c1nnnn1-c1cccc(F)c1F (centres unmarked) [I-A-656]
6.00 to 7.00	Nc1ncc(-c2cc(C(=O)O)cs2)cc1-c1nnnn1-c1cccc(F)c1F [I-A-185]
≥ 7.00	Nc1ncc(-c2ccc(CN3CC4CC3CO4)cc2)cc1-c1nnnn1-c1cccc(F)c1F (centres unmarked) [I-A-265]
≥ 7.00	Nc1ncc(-c2cnn(C3CCN(CCO)CC3)c2)cc1-c1nnnn1-c1cccc(Cl)c1F [I-A-469]
≥ 7.00	CN(C)Cc1ccc(-c2cnc(N)c(-c3nncn3-c3cccc(F)c3F)n2)cc1 [I-A-8]
≥ 7.00	COc1c(F)cccc1-n1nnnc1-c1cc(-c2ccc(CN(C)C)cc2)cnc1N [I-A-589]
≥ 7.00	Nc1ncc(-c2ccc(CN3CCCC3)cc2)cc1-c1nnnn1-c1c(F)ccc(Cl)c1F [I-A-376]
6.00 to 7.00	CN1CCN(c2ccc(-c3cnc(N)c(-c4nn(C)cc4-c4cccc(Cl)c4Cl)c3)cc2)CC1 [I-B-21]
≥ 7.00	CN1CCN(c2ccc(-c3cnc(N)c(-c4nnsc4-c4cccc(Cl)c4Cl)c3)cc2)CC1 [I-C-3]
≥ 7.00	CCN(CC)Cc1ccc(-c2cnc(N)c(-c3nnnn3-c3cccc(F)c3F)c2)cc1 [I-A-66]
≥ 7.00	Nc1ncc(-c2ccc(NC(=O)CO)cc2)cc1-c1nnnn1-c1cccc(F)c1F [I-A-338]
6.00 to 7.00	Nc1ncc(-c2ccc(N3CCCC3)nc2)cc1-c1nncn1-c1cccc(F)c1F [I-A-40]
≥ 7.00	CN(C)Cc1ccc(-c2cnc(N)c(-c3nnnn3-c3c(F)cccc3F)c2)cc1 [I-A-619]
≥ 7.00	Nc1ncc(C2=CCN(C(=O)[C@H]3CCC(=O)N3)CC2)cc1-c1nnnn1-c1cccc(F)c1F [I-A-657]
≥ 7.00	Nc1ncc(-c2ccn(C3CCNCC3)c2)cc1-c1nnnn1-c1cccc(Cl)c1F [I-A-652]
6.00 to 7.00	CC(=O)Nc1cccc(-c2cnc(N)c(-c3nnnn3-c3c(F)cccc3Cl)c2)c1 [I-A-612]
6.00 to 7.00	Cc1ccc(Cl)cc1-n1nnnc1-c1cc(-c2cnn(C3CCNCC3)c2)cnc1N [I-A-632]
≥ 7.00	Nc1ncc(-c2cnn(C3CCN(CC4CC4)CC3)c2)cc1-c1nnnn1-c1cccc(Cl)c1F [I-A-472]
≥ 7.00	Nc1ncc(-c2ccc(CO)cc2)cc1-c1nnnn1-c1cccc(F)c1F [I-A-232]
≥ 7.00	CC(=O)N1CC=C(c2cnc(N)c(-c3nnnn3-c3cccc(F)c3F)c2)CC1 [I-A-510]
≥ 7.00	Nc1ncc(-c2cnn(C3CCOCC3)c2)cc1-c1nnnn1-c1cccc(Cl)c1F [I-A-397]

pKi	SMILES
≥ 7.00	Nc1ncc(-c2ccc(CN3CCOCC3)cc2)nc1-c1nnnn1-c1cccc(F)c1F [I-A-51]
6.00 to 7.00	CN(C)Cc1ccc(-c2cnc(N)c(-c3nnnn3-c3cc(F)cc(F)c3Cl)c2)cc1 [I-A-605]
6.00 to 7.00	CC(C)(C)C(=O)Nc1ccc(-c2cnc(N)c(-c3nnnn3-c3cccc(F)c3F)c2)cc1 [I-A-194]
6.00 to 7.00	COc1ccc(-c2cnc(N)c(-c3nncn3-c3cccc(Cl)c3Cl)c2)cc1 [I-A-69]
≥ 7.00	COc1ccc(-c2cnc(N)c(-c3nnnn3-c3cccc(F)c3F)c2)cc1OC [I-A-309]
≥ 7.00	Nc1ncc(-c2ccc3c(c2)NC(=O)C3)cc1-c1nnnn1-c1cccc(F)c1F [I-A-190]
≥ 7.00	CCOC(=O)N1CCc2cc(-c3cnc(N)c(-c4nnnn4-c4cccc(F)c4F)c3)sc2CC1 [I-A-480]
≥ 7.00	Nc1ncc(-c2cnc3[nH]ccc3c2)nc1-c1nncn1-c1cccc(F)c1F [I-A-13]
≥ 7.00	Nc1ncc(-c2cccc(NC(=O)C3CC3)c2)cc1-c1nnnn1-c1cccc(F)c1F [I-A-261]
≥ 7.00	Nc1ncc(-c2cnn(CCN3CCCC3)c2)cc1-c1nnnn1-c1cccc(Cl)c1Cl [I-A-411]
6.00 to 7.00	Cc1c(Cl)cccc1-n1nnnc1-c1cc(-c2cccnc2)cnc1N [I-A-551]
≥ 7.00	Nc1ncc(-c2cnn(C3COCOC3)c2)cc1-c1nnnn1-c1cccc(F)c1F [I-A-432]
≥ 7.00	CN1CCN(c2ccc(-c3cnc(N)c(-c4nnnn4-c4cccc(F)c4F)c3)cc2)CC1 [I-A-19]
≥ 7.00	Nc1ncc(-c2cccc(O)c2)cc1-c1nnnn1-c1cccc(F)c1F [I-A-247]
≥ 7.00	Nc1ncc(-c2ccc(CN3CCCC3=O)cc2)cc1-c1nnnn1-c1cccc(F)c1F [I-A-203]
6.00 to 7.00	Nc1ncc(-c2cc(F)ccc2F)cc1-c1nnnn1-c1cccc(F)c1F [I-A-294]
6.00 to 7.00	Nc1ncc(-c2ccncc2)cc1-c1nncn1-c1cccc(Cl)c1Cl [I-A-71]
6.00 to 7.00	Nc1ncc(-c2ccc(CN3CCCC3)cc2)cc1-c1nc2cccnc2n1-c1cccc(Cl)c1F [I-D-14]
6.00 to 7.00	CC(=O)c1cccc(-c2cnc(N)c(-c3nncn3-c3cccc(F)c3F)n2)c1 [I-A-29]
6.00 to 7.00	Nc1ncc(-c2cccc(C(=O)N3CCOCC3)c2)cc1-c1nnnn1-c1cccc(F)c1F [I-A-320]
